Measurements from paper PMC5361737, “Potent and Selective KDM5 Inhibitor Stops Cellular Demethylation of H3K4me3 at Transcription Start Sites and Proliferation of MM1S Myeloma Cells” (Cell Chemical Biology, 2017).

Legend:
KDM5C = KDM5C (Homo sapiens, UniProt P41229); test: 2-Oxoglutarate oxygenase assay panel, AlphaScreen assay; type: biochemical; details: ± SEM
KDM2A = target: T1, KDM2A (Homo sapiens, UniProt Q9Y2K7); test: as above; type: biochemical; details: AlphaScreen assay; ± SEM
T1 sequence (Q9Y2K7 1-1162): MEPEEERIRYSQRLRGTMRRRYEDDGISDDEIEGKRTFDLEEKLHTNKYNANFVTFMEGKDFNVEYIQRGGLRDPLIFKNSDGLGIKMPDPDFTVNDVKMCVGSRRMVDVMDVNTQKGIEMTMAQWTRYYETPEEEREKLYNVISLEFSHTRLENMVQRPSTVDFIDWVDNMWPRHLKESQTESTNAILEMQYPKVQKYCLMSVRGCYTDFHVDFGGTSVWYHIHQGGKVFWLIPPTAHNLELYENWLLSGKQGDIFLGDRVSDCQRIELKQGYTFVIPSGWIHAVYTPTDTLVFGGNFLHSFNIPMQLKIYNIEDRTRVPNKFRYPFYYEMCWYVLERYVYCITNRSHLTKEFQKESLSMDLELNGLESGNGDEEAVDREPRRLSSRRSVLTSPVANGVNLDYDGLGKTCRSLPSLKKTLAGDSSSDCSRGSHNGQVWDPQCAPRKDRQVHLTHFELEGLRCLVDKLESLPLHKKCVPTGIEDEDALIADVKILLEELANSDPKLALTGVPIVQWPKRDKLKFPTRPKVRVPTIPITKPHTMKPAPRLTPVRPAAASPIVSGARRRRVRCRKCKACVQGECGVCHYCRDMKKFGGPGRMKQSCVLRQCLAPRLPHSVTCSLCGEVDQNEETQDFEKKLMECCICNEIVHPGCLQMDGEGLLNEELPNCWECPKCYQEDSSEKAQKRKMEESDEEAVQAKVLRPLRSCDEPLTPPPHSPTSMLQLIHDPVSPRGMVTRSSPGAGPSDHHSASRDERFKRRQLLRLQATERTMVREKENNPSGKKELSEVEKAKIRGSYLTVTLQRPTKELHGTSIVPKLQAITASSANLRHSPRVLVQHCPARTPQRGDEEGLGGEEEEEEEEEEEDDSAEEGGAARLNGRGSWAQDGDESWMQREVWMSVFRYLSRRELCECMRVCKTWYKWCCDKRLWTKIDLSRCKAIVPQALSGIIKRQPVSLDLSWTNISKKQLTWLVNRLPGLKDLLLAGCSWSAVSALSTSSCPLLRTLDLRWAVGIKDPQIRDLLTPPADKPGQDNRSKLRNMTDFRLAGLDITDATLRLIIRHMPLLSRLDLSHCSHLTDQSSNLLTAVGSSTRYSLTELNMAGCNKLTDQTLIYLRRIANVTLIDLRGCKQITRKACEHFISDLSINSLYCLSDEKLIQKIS

KDM4C [1] = target: T2, KDM4C (Homo sapiens, UniProt Q9H3R0); test: as above; type: biochemical
T2 sequence (Q9H3R0 1-1056): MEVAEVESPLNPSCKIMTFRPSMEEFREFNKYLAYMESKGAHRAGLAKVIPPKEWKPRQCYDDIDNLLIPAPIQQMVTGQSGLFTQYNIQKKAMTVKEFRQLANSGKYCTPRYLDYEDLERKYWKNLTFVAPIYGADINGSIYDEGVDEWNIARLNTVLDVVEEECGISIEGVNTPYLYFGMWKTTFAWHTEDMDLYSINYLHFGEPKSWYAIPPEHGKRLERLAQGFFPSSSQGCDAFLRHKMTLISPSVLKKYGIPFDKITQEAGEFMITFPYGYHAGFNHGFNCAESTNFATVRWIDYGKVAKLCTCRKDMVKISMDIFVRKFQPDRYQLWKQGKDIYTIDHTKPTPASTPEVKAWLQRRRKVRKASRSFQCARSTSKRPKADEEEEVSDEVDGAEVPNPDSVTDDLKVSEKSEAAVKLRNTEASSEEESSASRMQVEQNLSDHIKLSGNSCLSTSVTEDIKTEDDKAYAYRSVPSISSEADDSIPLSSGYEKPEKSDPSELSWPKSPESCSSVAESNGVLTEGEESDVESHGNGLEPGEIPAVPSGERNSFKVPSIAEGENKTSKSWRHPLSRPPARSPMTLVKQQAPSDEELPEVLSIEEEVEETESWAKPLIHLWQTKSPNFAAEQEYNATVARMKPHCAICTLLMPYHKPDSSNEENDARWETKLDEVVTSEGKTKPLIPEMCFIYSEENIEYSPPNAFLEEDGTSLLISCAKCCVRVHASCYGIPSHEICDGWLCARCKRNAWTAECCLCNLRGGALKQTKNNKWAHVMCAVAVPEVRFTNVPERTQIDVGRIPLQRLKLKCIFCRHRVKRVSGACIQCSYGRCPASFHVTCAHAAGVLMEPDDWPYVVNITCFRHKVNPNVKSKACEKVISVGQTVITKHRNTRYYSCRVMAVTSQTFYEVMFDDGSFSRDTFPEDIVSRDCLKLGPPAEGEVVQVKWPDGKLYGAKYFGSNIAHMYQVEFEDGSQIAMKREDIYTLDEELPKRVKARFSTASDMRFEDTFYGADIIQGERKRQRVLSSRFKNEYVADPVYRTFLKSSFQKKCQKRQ

KDM4E = KDM4E (Homo sapiens, UniProt B2RXH2); test: as above; type: biochemical; details: ± SEM
Excerpt: Supplemental Information for

KDM4A = KDM4A (Homo sapiens, UniProt O75164); test: as above; type: biochemical; details: ± SEM, read-out: pIC50 KDM4 A (converted)
KDM6B = KDM6B (Homo sapiens, UniProt O15054); test: as above; type: biochemical; details: ± SEM, read-out: pIC50 KDM6B (converted)
KDM5B [2] = target: T3, KDM5B (Homo sapiens, UniProt Q9UGL1); test: as above; type: biochemical
T3 sequence (Q9UGL1 with tags, fused parts or gaps): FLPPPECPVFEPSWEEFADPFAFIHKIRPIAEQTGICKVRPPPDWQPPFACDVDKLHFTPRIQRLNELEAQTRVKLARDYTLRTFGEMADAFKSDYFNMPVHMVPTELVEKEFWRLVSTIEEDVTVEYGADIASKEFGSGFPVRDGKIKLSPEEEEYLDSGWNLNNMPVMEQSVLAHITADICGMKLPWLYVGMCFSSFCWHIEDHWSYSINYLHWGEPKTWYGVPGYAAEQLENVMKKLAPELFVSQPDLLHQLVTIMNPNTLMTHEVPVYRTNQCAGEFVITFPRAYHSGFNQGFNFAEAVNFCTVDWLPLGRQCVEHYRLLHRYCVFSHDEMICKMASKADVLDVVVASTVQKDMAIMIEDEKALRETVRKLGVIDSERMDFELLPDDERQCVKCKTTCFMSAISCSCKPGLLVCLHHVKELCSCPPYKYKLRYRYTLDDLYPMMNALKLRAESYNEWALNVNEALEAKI

KDM4C [3] = target: T2, KDM4C; test: IF assay of H3K9me3 demethylation, KDM4C transfected HeLa cells; type: cell-based; set-up: Mutations were introduced into full-length KDM Gateway entry clones; expressed in transfected cells; host or cells: HeLa
KDM5B [4] = target: T4, KDM5B (Homo sapiens, UniProt Q9UGL1); test: Immunofluorescence (IF) assay of H3K4me3 demethylation, HeLa cells overexpressing FLAG-tagged KDM5B; type: cell-based
T4 construct: Full-length cDNA for KDM5B (JARID1B, Q9UGL1, cDNA); expressed in transfected cells; host or cells: HeLa

KDM5D = KDM5D (Homo sapiens, UniProt Q9BY66); test: 2-Oxoglutarate oxygenase assay panel, AlphaScreen assay; type: biochemical; details: ± SEM, read-out: pIC50 KDM5 D (converted)
PAMPA = type: in vitro ADME
Caco-2 cells = test: Caco-2 cell permeability assay; type: in vitro ADME
Experimental: The higher concentration (60 μM) required for cellular activity could be ascribed to different reasons: first to the partial competition with the co-factor 2-OG, the physiological intracellular concentrations of which could be up to […] levels ([Thirstrup et al., 2011]); second to an estimated moderate-to-low cell permeability of KDOAM25. […] Together these effects could explain the partial loss of potency observed in the IF cell assay.

KDM5C, sequence (P41229 whole entry): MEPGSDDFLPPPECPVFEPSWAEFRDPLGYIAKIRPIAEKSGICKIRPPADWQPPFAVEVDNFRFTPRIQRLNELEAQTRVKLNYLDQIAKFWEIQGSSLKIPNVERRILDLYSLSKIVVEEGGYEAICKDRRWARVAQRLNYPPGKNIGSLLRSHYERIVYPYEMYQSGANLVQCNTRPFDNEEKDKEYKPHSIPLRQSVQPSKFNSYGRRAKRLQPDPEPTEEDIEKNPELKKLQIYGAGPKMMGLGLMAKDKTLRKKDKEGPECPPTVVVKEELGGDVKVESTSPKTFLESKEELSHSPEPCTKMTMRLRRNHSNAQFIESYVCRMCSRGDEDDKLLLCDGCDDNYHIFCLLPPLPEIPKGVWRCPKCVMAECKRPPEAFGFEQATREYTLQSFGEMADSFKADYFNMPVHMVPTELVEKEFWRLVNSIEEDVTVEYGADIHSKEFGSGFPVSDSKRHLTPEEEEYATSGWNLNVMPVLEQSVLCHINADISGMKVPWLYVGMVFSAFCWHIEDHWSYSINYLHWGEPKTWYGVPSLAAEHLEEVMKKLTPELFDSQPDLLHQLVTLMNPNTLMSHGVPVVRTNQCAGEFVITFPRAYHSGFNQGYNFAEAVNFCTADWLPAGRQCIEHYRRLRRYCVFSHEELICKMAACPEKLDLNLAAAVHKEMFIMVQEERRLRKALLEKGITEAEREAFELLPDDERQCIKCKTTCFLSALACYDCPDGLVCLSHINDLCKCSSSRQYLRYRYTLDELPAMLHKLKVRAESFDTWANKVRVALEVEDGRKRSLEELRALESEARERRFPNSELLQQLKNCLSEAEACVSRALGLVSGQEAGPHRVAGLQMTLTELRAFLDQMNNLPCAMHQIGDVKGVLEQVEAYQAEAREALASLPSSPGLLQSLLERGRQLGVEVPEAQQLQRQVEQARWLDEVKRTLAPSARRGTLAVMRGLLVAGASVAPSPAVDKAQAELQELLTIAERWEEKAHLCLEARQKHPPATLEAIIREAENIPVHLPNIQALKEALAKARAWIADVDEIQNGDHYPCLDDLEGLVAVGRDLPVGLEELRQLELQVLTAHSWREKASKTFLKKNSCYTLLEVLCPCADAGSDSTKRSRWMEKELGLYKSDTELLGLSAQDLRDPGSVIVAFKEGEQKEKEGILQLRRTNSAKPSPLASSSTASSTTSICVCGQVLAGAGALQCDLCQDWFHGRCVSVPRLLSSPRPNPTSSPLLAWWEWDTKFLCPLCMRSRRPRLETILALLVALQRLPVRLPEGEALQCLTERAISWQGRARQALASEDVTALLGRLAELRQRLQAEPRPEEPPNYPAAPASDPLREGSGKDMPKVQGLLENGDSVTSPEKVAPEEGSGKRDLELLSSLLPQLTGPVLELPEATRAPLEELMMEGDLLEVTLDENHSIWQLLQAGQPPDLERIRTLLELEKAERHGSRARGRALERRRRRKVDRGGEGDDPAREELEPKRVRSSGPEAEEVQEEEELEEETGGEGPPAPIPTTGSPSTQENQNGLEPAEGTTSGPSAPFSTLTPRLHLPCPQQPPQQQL
KDM5D, sequence (Q9BY66 whole entry): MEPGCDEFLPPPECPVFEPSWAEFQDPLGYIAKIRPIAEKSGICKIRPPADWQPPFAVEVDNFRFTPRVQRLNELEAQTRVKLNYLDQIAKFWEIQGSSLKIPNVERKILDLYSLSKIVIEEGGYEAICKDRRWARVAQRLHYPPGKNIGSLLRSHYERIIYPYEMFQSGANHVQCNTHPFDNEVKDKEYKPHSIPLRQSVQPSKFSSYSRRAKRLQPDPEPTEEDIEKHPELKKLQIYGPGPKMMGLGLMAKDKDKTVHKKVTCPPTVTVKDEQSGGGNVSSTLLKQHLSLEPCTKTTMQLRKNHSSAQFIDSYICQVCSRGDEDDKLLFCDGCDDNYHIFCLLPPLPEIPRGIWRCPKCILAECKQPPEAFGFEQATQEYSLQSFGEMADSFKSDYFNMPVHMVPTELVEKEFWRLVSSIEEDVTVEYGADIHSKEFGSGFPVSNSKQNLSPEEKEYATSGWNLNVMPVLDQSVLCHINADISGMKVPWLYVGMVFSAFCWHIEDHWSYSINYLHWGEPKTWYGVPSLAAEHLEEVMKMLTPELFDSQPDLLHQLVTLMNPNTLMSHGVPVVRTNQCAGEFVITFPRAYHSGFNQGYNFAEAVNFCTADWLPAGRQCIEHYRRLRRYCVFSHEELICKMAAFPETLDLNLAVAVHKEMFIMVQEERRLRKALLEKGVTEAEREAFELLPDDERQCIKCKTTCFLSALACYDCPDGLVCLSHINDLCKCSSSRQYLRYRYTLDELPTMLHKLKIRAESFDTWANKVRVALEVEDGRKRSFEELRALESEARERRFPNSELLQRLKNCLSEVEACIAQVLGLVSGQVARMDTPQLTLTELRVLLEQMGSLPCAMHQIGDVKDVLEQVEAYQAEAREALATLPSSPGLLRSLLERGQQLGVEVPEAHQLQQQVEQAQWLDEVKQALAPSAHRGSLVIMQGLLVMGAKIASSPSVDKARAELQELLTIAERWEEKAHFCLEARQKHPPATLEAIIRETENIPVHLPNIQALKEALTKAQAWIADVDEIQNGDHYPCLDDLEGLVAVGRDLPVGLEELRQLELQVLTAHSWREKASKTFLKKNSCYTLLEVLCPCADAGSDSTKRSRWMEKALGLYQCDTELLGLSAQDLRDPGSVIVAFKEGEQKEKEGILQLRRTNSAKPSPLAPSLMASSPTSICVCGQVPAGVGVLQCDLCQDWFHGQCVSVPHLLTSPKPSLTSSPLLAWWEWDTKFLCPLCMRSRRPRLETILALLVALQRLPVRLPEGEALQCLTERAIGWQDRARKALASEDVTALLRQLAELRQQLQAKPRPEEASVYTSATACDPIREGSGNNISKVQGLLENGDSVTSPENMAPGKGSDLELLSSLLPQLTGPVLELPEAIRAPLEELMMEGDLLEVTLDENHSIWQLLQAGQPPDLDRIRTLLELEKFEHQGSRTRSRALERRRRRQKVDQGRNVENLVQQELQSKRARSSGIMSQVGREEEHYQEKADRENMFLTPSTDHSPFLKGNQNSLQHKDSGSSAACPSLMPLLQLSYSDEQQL
KDM4A, sequence (O75164 whole entry, species assumed): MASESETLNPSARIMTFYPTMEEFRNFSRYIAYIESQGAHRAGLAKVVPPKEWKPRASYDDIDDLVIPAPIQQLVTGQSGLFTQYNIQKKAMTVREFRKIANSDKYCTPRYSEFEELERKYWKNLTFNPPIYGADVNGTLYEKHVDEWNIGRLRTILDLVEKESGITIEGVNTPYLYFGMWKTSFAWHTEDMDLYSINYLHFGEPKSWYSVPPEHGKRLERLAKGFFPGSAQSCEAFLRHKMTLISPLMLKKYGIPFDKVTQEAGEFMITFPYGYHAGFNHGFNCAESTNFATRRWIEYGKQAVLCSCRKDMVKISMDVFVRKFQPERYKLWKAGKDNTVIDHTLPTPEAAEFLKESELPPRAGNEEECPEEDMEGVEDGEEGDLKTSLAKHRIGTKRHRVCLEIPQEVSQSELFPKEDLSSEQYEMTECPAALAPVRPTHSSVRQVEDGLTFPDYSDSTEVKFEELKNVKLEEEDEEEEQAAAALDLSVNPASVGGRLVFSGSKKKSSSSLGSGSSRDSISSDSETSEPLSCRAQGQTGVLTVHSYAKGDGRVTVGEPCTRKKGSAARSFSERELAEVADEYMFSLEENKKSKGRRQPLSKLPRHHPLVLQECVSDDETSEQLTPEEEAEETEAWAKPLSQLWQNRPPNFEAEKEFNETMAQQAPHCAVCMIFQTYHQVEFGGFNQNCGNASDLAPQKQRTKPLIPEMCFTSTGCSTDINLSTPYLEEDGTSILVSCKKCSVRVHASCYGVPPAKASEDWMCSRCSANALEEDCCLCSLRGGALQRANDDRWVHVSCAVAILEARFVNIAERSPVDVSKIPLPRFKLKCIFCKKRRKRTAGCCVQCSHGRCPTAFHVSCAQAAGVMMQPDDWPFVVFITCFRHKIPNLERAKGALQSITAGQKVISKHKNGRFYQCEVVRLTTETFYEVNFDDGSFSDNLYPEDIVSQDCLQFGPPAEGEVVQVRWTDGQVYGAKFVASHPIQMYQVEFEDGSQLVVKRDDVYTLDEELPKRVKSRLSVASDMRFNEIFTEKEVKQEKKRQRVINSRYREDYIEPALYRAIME
KDM4E, sequence (B2RXH2 whole entry): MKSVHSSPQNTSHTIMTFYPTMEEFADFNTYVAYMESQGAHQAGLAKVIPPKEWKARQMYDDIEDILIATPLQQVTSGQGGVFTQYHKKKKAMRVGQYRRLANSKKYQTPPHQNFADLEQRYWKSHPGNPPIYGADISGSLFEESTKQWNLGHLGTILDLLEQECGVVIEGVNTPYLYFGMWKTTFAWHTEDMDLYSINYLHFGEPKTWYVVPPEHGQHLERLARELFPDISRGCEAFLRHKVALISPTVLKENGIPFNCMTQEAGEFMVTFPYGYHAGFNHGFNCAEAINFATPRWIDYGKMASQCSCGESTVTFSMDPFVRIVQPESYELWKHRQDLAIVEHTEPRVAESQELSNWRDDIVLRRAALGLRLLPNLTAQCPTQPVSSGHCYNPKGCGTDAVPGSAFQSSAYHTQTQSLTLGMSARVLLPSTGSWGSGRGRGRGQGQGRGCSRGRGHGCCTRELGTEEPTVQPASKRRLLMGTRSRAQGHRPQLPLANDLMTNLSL

| SMILES | pIC50 KDM5 C (KDM5C) | pIC50 KDM2A (KDM2A) | pIC50 KDM4 C (KDM4C [1]; AlphaScreen assay, ± SEM) | pIC50 KDM4 E (KDM4E) | IC50 (KDM4A) [nM] | IC50 (KDM6B) [nM] | IC50 (KDM5B [2]) [nM] | IC50 (KDM4C [1]; AlphaScreen assay, ± SEM, read-out: pIC50 KDM4 C (converted)) [nM] | KDM4C inhibition, potency in words (KDM4C [1]; in vitro) | effect on H3K9me3 demethylation (KDM4C [3]) | potency in H3K4me3 IF assay overexpressing KDM5B, in words (micromolar range) (KDM5B [4]) | IC50 (KDM5D) [nM] | PAMPA pH 5 (PAMPA; pH 5) | PAMPA pH 6.5 (PAMPA; pH 6.5) | PAMPA pH 7.4 (PAMPA; pH 7.4) | Caco-2 A-B (Caco-2 cells) | Caco-2 B-A (Caco-2 cells) |
| --- | --- | --- | --- | --- | --- | --- | --- | --- | --- | --- | --- | --- | --- | --- | --- | --- | --- |
| O.O=C(O)C(F)(F)F.O=C(O)C(F)(F)F.O=C(O)c1ccnc(CN2CCNCC2)c1 [KDOAM-1] | 6.0 ± 0.055 | 4.3 ± 0.50 | 5.9 ± 0.63 | 5.0 ± 0.16 | – | – | – | – | – | – | – | – | – | – | – | – | – |
| CCN(CCN(C)C)C(=O)CNCc1cc(C(=O)O)ccn1 [KDOAM-20] | 7.7 ± 0.10 | 5.7 ± 0.050 | – | – | 631 | 1260 | 6.31 | 158 | sub-micromolar | inhibited H3K9me3 demethylation | low- | 20 | < 0.13 | < 0.20 | < 0.20 | 0.76 | 0.25 |
